Holding throughout (type): cell-based
Data set [1] deals with T1, ATP-dependent translocase ABCB1 (Homo sapiens, UniProt P08183). Description: Inhibition of P-gp in human NCI-H460/R cells assessed as mean fluorescence intensity of Rhodamine 123 at 20 uM (reference value: 16.96).
Data set [2] addresses T1, ATP-dependent translocase ABCB1. As to the kind of experiment: Inhibition of P-gp in human NCI-H460/R cells assessed as fluorescence activity ratio at 20 uM relative to control.
For data set [3] the target is unchanged. As to the kind of experiment: Ratio of inhibition of P-gp in human NCI-H460/R cells assessed as mean fluorescence intensity at 20 uM relative to control.

Results on three molecules are retold here after ChEMBL document CHEMBL4613301, “Molecular Docking Studies of Royleanone Diterpenoids from Plectranthus spp. as P-Glycoprotein Inhibitors” (ACS Med Chem Lett, 2020).

T1 sequence (P08183 whole entry): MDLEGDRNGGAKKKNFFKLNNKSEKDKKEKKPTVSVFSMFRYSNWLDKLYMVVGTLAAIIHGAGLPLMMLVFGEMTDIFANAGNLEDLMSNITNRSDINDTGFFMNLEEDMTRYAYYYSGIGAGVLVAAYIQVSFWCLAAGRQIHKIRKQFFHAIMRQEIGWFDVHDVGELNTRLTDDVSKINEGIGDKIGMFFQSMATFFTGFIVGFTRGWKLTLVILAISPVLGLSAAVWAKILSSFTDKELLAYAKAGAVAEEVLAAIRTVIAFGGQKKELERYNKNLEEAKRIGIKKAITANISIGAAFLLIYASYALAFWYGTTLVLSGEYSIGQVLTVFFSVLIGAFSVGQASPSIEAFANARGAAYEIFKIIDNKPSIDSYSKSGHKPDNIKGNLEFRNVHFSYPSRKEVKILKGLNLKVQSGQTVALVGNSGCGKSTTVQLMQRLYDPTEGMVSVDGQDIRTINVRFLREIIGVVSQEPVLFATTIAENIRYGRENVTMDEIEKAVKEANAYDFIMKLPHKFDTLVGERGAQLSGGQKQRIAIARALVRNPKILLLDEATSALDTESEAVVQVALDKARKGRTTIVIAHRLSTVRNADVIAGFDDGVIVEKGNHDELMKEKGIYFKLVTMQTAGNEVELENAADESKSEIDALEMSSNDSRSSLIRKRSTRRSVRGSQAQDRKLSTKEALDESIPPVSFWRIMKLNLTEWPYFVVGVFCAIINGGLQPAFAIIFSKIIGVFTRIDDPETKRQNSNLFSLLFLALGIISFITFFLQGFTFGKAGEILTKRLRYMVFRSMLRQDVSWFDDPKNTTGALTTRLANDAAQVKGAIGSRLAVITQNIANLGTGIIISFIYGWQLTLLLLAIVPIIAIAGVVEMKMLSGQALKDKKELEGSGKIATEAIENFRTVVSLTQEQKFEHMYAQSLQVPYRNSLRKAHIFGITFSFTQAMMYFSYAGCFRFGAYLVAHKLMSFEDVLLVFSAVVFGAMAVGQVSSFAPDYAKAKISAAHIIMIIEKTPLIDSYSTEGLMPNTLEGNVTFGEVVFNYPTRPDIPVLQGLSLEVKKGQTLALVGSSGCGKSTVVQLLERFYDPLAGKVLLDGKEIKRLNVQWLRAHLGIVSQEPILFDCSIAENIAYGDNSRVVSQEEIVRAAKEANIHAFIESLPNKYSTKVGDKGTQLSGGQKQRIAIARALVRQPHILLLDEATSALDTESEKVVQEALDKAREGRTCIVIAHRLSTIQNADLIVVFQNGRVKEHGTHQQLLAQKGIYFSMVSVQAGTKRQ

Take `CC(=O)O[C@H]1C2=C(C(=O)C(OC(=O)c3ccc(Cl)cc3)=C(C(C)C)C2=O)[C@@]2(C)CCCC(C)(C)[C@@H]2[C@@H]1OC(=O)c1ccc(Cl)cc1`: in data set [1], the FI was found to be 28.97. For the same molecule, the Ratio turned out to be 1.71 in data set [2] and 21.6 in data set [3].

As to `CC(=O)O[C@H]1C2=C(C(=O)C(OC(=O)c3ccccc3)=C(C(C)C)C2=O)[C@@]2(C)CCCC(C)(C)[C@@H]2[C@@H]1O`, the FI in data set [1] turned out to be 35.54. Moreover, the Ratio was determined as 2.1 in data set [2] and 26.5 in data set [3].

With `COc1ccc(CCN(C)CCC[C@](C#N)(c2ccc(OC)c(OC)c2)C(C)C)cc1OC` [DEXVERAPAMIL], in data set [1], the FI worked out at 36.07. The Ratio in data set [2] is listed as 2.13; in data set [3], 26.9.
